According to patent publication US20220372014A1, “NEUROPROTECTIVE COMPOUNDS AND METHODS OF USE THEREOF” (The Johns Hopkins University, priority 2019, published 2022):

Experiments:
PARP = assay: MNNG-induced PAR accumulation (PARP activation), western blot; format: cell-based; conditions: FIG. 12A
Description: Tissue lysate preparation and western blot analysis. Dissected brain regions of interest were homogenized and prepared in lysis buffer [50 mM Tris-HCl (pH 7.4), 150 mM NaCl, 1 mM EDTA, 1% Triton x-100, 0.5% SDS, 0.5% sodium-deoxycholate, phosphatase inhibitor mixture I and II (Sigma-Aldrich, St. Louis, Mo.), and complete protease inhibitor mixture (Roche, Indianapolis, Ind.)]. The samples were rotated at 4° C. for 30 min for the complete lysis and centrifugated at 15,000×g for 30 min. Protein concentrations were determined using the BCA assay (Pierce) and samples were separated using SDS polyacrylamide gels and transferred onto nitrocellulose membranes. The blots were blocked with 5% non-fat milk in TBS-T (Tris buffered saline with 0.1% Tween—20) for 1 h, probed using various primary antibodies. Target antigens were incubated with appropriate HRP-conjugated secondary antibodies (Cell signaling) and were visualized by ECL substrate.
Cell culture, transfection, primary neuronal culture and treatment. SH-SY5Y cells (ATCC) were cultured in DMEM containing 10% fetal bovine serum and penicillin/streptomycin at 37° C. under 5% C02. The cells were transfected using PolyFect reagent (Qiagen). Parthanatos was induced by the treatment of 50 μM MNNG for 15 min in SH-SY5Y cells. ABT-888 or PAAN/MIF inhibitors were pretreated with indicated concentration 1 h before MNNG treatment and cell death were assessed after 24 h. Primary cortical neurons from WT, PAAN/MIF KO, E22Q KI or P1G KI embryos were prepared as previously described See Kam et al. (2018) Science 362:eaat8407. Briefly, the cortex was dissected and cultured at embryonic day 16 in neurobasal media supplemented with B-27, 0.5 mM L-glutamine, penicillin and streptomycin (Invitrogen). Primary neurons were infected with AAV2-control, AAV2-PAAN/MIF WT, AAV2-PAAN/MIF E22Q, AAV2-PAAN/MIF E22A or AAV2-MIF P1G (ViGene Biosciences) at days in vitro (DIV) 4-5. ABT-888 or PAAN/MIF inhibitors were applied to neurons 1 h before α-syn PFF treatment. The neuron growth medium was replaced with fresh medium alone or including inhibitors every 3-4 days. α-syn PFF was added at DIV 7 and further incubated for indicated times followed by the cell death assay or biochemical experiments.

[1] = molecular target: T1, PAAN/MIF tautomerase activity (Homo sapiens, UniProt P14174); assay: Tautomerase activity assay (D-dopachrome methyl ester); format: biochemical; conditions: 10 μM compounds
T1 construct: GST (N, cleaved yes); made in house; host or cells: Escherichia coli
T1 sequence (P14174 1-115): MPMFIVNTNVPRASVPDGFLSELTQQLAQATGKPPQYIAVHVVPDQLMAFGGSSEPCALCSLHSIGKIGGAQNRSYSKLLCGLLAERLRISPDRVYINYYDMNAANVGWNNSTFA
Description: Tautomerase activity assay. The keto-enol tautomeric conversion of D-dopachrome methyl ester by PAAN/MIF was used as described previously. See Bendraft et al. (1997) Biochemistry 36:15356-62. Briefly, a fresh solution of D-dopachrome methyl ester was prepared by mixing 2 mML-3,4 dihydroxyphenylalanine methyl ester with 4 mM sodium peroxidate for 5 m at room temperature and then placed directly on ice before use. The enzymatic reaction was initiated at 25° C. by adding 20 μl of the dopachrome methyl ester substrate to 200 μl of PAAN/MIF WT (final concentration 5 μM) with or without 10 μM compounds (compounds 41, 56, 76, and 77) in tautomerase assay buffer (50 mM potassium phosphate, 1 mM EDTA, pH 6.0). To enhance substrate stability, excess sodium meta-periodate was removed using […] disposable columns (Waters). The activity was determined by the decrease in absorbance at 475 nm using a spectrophotometer (Molecular Devices).

[2] = molecular target: T2, PAAN/MIF thiol-protein oxidoreductase activity (Homo sapiens, UniProt P14174); assay: Oxidoreductase activity assay (insulin reduction); format: biochemical; conditions: 10 μM compounds
T2 construct: GST (N, cleaved yes); made in house; host or cells: Escherichia coli
T2 sequence (P14174 1-115): T1 sequence (P14174 1-115)
Description: Oxidoreductase activity assay. The thiol-protein oxidoreductase activity of PAAN/MIF was measured using insulin as the substrate as described previously. See Kudrin et al. (2006) J. Biol. Chem. 281:29641-51. Briefly, the insulin assay is based on the reduction of insulin and subsequent insolubilization of the insulin β-chain. The time-dependent increase in turbidity is then measured spectrophotometrically at 650 nm. The reaction was started by adding 5 μM PAAN/MIF WT in the presence or absence of 10 μM compounds (compounds 41, 56, 76, and 77) dissolved in 20 mM sodium phosphate buffer (pH 7.2), and 200 mM reduced glutathione (GSH) to ice-cold reaction mixture containing 1 mg/ml insulin, 100 mM sodium phosphate buffer (pH 7.2) and 2 mM EDTA. Insulin reduction was measured against the control solution (containing GSH) in the same experiment.

MIF = molecular target: T3, MIF (Homo sapiens, UniProt P14174); assay: Nuclease assay of Example 3 (MIF inhibitory activity, Table 4); format: biochemical; conditions: nuclease assay of Example 3
T3 sequence (P14174 1-115): T1 sequence (P14174 1-115)
Summary of the method: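 Human genomic DNA (200 ng), pcDNA (200 ng) or PS^30-type substrates (1 μM) were incubated with MIF (0.25-8 μM final) in 10 mM Tris-HCl pH 7.0, 10 mM MgCl2, 1 mM DTT at 37 °C for 1 h (pcDNA, small substrates) or 4 h (genomic DNA). Cleavage was assessed by agarose or PAGE electrophoresis with EtBr staining and chemiluminescent detection of biotin-labelled DNA.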

Row | Compound | MNNG-induced PARP activation (PAR accumulation) (PARP) | MIF's tautomerase activity [1] | MIF's oxidoreductase activity [2] | (%) inhibition of MIF nuclease activity (MIF)
1 | COc1ccc(CC[C@H]2OC(=O)[C@@H]3CCCCN3C(=O)C(=O)C(C)(C)COC(=O)C=CCCN(C)C(=O)[C@@H]3CCCN3C(=O)[C@H](COC(C)(C)C)N(C)C(=O)C(c3ccccc3)NC(=O)[C@H](C)N(C)C(=O)COc3cccc2c3)cc1OC (stereo partly drawn) [compound 56] | did not affect | Neither did they inhibit | Neither did they inhibit | 70.8%
2 | COc1ccc(CC[C@H]2OC(=O)[C@@H]3CCCCN3C(=O)C(=O)C(C)(C)COC(=O)C=CCCN(C)C(=O)[C@@H]3CCCN3C(=O)[C@H](CO)N(C)C(=O)C(c3ccccc3)NC(=O)[C@H](C)N(C)C(=O)COc3cccc2c3)cc1OC (stereo partly drawn) [compound 97] |  |  |  | −5.3%
3 | COc1ccc(CC[C@H]2OC(=O)[C@@H]3CCCCN3C(=O)C(=O)C(C)(C)COC(=O)C=CCCN(C)C(=O)[C@@H]3CCCN3C(=O)[C@H](COC(C)(C)C)N(C)C(=O)C(c3ccccc3)NC(=O)CN(C)C(=O)COc3cccc2c3)cc1OC (stereo partly drawn) [compound 41] | did not affect | Neither did they inhibit | Neither did they inhibit | 82.0%
4 | COc1ccc(CC[C@H]2OC(=O)[C@@H]3CCCCN3C(=O)C(=O)C(C)(C)COC(=O)C=CCCN(C)C(=O)[C@H](C)NC(=O)[C@H](C(C)C)N(C)C(=O)[C@@H](Cc3ccccc3)NC(=O)[C@H](CC(C)C)N(C)C(=O)CCC(=O)Nc3cccc2c3)cc1OC [compound 77] | did not affect | Neither did they inhibit | Neither did they inhibit | 75.5%
5 | COc1ccc(CC[C@H]2OC(=O)[C@@H]3CCCCN3C(=O)C(=O)C(C)(C)COC(=O)C=CCCN(C)C(=O)CNC(=O)[C@H](C(C)C)N(C)C(=O)[C@@H](Cc3ccccc3)NC(=O)[C@H](CC(C)C)N(C)C(=O)CCC(=O)Nc3cccc2c3)cc1OC [compound 76] | did not affect | Neither did they inhibit | Neither did they inhibit | 73.5%
6 | COc1ccc(CC[C@H]2OC(=O)[C@@H]3CCCCN3C(=O)C(=O)C(C)(C)COC(=O)C=CCCN(C)C(=O)[C@@H]3CCCN3C(=O)[C@H](COC(C)(C)C)N(C)C(=O)C(c3ccccc3)NC(=O)[C@H](C)N(C)C(=O)COc3cc(F)cc2c3)cc1OC (mixture of isomers) [compound 121] |  |  |  | 71.2%
